# Test results from patent publication US8822754B2, “Ecdysone receptor-based inducible gene expression system” (Intrexon Corporation, priority 2000, dated 2014).
# Columns and labels:
# GAL4RXR + VP16CfEcR = assay: Transactivation of reporter genes through switch 1.3 in CV1 cells; format: cell-based, Choristoneura fumiferana; conditions: switch 1.3 GAL4RXR + VP16CfEcR, pGAL4RELuc
# Procedure: The same procedures described for NIH3T3 cells were followed for CV1 cells
# (§1) Cells were harvested 24-48 hr after adding ligands. […] Twenty μl of lysate was assayed.
# CfEcR/RXR-based switch = assay: Luciferase reporter assay of truncated CfEcR and MmRXR receptor pairs in NIH3T3 cells (Example 2); format: cell-based, Choristoneura fumiferana; conditions: NIH3T3 cells, 0, 1, 5 or 25 uM ligand, 48 hr; FIGS. 11-14
# Procedure: Briefly, polynucleotides encoding EcR or RXR receptors were truncated at the junctions of A/B, C, D, E and F domains and fused to either a GAL4 DNA binding domain encoding polynucleotide (SEQ ID NO: 41) for CfEcR, or a VP16 activation domain encoding polynucleotide (SEQ ID NO: 45) for MmRXR as described in Example 1. The resulting receptor truncation/fusion polypeptides were assayed in NIH3T3 cells. Plasmid pFRLUC (Stratagene) encoding a luciferase polypeptide was used as a reporter gene construct and pTKRL (Promega) encoding a Renilla luciferase polypeptide under the control of the constitutive TK promoter was used to normalize the transfections as described above. The analysis was performed in triplicates and mean luciferase counts were determined as described above.
# Gene expression cassettes comprising polynucleotides encoding either full length or truncated CfEcR polypeptides fused to a GALA. […] The cells were harvested, lysed and luciferase reporter activity was measured in the cell lysates. […]
# CfVgRXR + MmRXR = assay: Transactivation of reporter genes through switch 1.9 in 3T3 cells; format: cell-based, Choristoneura fumiferana; conditions: switch 1.9 CfVgRXR + MmRXR, pIND(SP1)LacZ
# Procedure: This example was prepared in the same way as switch 1.8 except DinEcR was replaced with a truncated CfEcR comprising a partial A/B domain and the complete CDEF domains [SEQ ID NO: 62 (polynucleotide) and SEQ ID NO: 63 (polypeptide)].
# (§2) The cells were plated when they reached 50% confluency.
# as §1
# GAL4EcR + VP16RXR = assay: Transactivation of reporter genes through switch 1.1 in CHO cells; format: cell-based, Choristoneura fumiferana; conditions: switch 1.1 GAL4EcR + VP16RXR, pGAL4RELuc
# Procedure: The cells were harvested and reporter activity was assayed.
# as §1
# GAL4RXR + VP16DmEcR = biological target: T1, GAL4RXR + VP16DmEcR (Drosophila melanogaster, UniProt P34021); assay: Transactivation of reporter genes through switch 1.4 in 3T3 cells; format: cell-based; conditions: switch 1.4 GAL4RXR + VP16DmEcR, pGAL4RELuc
# T1 sequence (P34021 254-878): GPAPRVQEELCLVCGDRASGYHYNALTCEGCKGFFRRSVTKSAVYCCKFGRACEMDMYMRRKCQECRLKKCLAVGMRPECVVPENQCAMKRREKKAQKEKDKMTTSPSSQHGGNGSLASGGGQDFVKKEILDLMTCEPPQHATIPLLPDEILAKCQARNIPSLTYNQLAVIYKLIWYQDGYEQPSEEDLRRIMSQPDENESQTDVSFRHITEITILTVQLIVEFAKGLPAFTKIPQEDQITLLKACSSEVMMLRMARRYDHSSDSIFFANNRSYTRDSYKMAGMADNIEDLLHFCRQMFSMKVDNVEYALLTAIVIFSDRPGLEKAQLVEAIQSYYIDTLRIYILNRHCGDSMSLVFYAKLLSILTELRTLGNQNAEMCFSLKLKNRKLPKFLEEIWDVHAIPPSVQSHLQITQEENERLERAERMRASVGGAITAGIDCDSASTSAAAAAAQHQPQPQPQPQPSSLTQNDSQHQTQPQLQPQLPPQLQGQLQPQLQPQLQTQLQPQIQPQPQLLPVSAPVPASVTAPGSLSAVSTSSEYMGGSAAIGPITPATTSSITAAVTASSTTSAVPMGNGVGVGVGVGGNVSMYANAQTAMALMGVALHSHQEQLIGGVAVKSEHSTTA
# T1 sequence (P28700 206-467 partner limits assumed): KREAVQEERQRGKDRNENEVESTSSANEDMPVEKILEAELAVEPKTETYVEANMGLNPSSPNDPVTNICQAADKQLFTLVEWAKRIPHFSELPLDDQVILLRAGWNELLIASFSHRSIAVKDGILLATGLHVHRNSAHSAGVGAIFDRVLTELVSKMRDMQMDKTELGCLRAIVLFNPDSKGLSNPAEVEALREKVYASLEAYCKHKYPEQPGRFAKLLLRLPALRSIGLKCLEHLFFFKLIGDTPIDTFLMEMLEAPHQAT
# Procedure: This construct was prepared in the same way as switch 1.3 except CfEcRCDEF was replaced with DmEcRCDEF (SEQ ID NO: 6).
# as §2, §1
smiles,measurement,setting,value
"CCc1c(OC)cccc1C(=O)NN(C(=O)c1cc(C)cc(C)c1)C(C)(C)C [N-(2-ethyl-3-methoxybenzoyl)-N′-(3,5-dimethylbenzoyl)-N′-tert-butylhydrazine]","Mean Fold Activation Through N-(2-ethyl-3-methoxybenzoyl)-N′-(3,5-dimethylbenzoyl)-N′-t-butylhydrazine",GAL4RXR + VP16CfEcR,25 fold
same,sensitivity of the EcR/RXR switch to the ligand,CfEcR/RXR-based switch,much more sensitive
same,"Mean Fold Activation Through N-(2-ethyl-3-methoxybenzoyl)-N′-(3,5-dimethylbenzoyl)-N′-t-butylhydrazine",CfVgRXR + MmRXR,19 fold
same,"Mean Fold Activation with 50 μM N-(2-ethyl-3-methoxybenzoyl)-N′-(3,5-dimethylbenzoyl)-N′-t-butylhydrazine",GAL4EcR + VP16RXR,267 fold
same,"Mean Fold Activation Through N-(2-ethyl-3-methoxybenzoyl)-N′-(3,5-dimethylbenzoyl)-N′-t-butylhydrazine",GAL4RXR + VP16DmEcR,269 fold
